Assay results from patent US10947251B2, “Therapeutic compounds and methods of use thereof” (GENENTECH, INC., priority 2018, dated 2021).

Experiments:
[1] = biological target: T1, hNav1.7 (Homo sapiens (Human), UniProt Q15858); assay: Tritiated compound binding to membranes from cells heterologously expressing hNav1.7 and the β1 subunit (LBA); conditions: competitive binding vs [3H]compound, membranes with hNav1.7 and β1 subunit; read-out: Nav1.7 LBA EVO IC50
Experimental: Example 39A. Tritiated Compound Binding to Membranes Isolated from Cells that Heterologously Express hNav1.7 and the β1 Subunit
Preparation of membranes containing recombinantly expressed sodium channels: Frozen recombinant cell pellets were thawed on ice and diluted to 4 times the cell pellet weight with ice cold 50 mM Tris HCl, pH 7.4 buffer. The cell suspensions were homogenized on ice using a motorized glass dounce homogeniser. Homogenates were further diluted 8.4 times with ice cold 50 mM Tris HCl, pH 7.4 buffer and then centrifuged at 200×g at 4° C. for 15 min. The supernatants were collected and centrifuged at 10000×g at 4° C. for 50 min. The pellets were then re-suspended in 100 mM NaCl, 20 mM Tris HCl, pH 7.4 buffer containing 1% v/v protease inhibitors (Calbiochem) and re-homogenized on ice. The homogenized membranes were then processed through a syringe equipped with a 26 gauge needle. Protein concentrations were determined by Bradford Assay and the membranes were stored at −80° C.
Saturation experiments. A competitive NaV1.7 inhibitor having a methyl group was tritiated. Three tritiums were incorporated in place of methyl hydrogens to generate [^3H]compound. Binding of this radioligand was performed in 5 mL borosilicate glass test tubes at room temperature. Binding was initiated by adding membranes to increasing concentrations of [^3H]compound in 100 mM NaCl, 20 mM Tris HCl, pH 7.4 buffer containing 0.01% w/v bovine serum albumin (BSA) for 18 h. Non-specific binding was determined in the presence of 1 μM unlabeled compound. After 18 h, the reactants were filtered through GF/C glass fiber filters presoaked in 0.5% w/v polyethylene imine. Filters were washed with 15 mL ice cold 100 mM NaCl, 20 mM Tris HCl, pH7.4 buffer containing 0.25% BSA to separate bound from free ligand. [^3H]compound bound to filters was quantified by liquid scintillation counting.
Binding reactions were performed in 96-well polypropylene plates at room temperature for 18 h. In 360 μL, membranes were incubated with 100 pM [^3H]compound and increasing concentrations of Test Compound. Non-specific binding was defined in the presence of 1 μM unlabeled compound. Reactions were transferred and filtered through 96-well glass fiber/C filter plates presoaked with 0.5% polyethylene imine. The filtered reactions were washed 5 times with 200 μL ice cold buffer containing 0.25% BSA. Bound radioactivity was determined by liquid scintillation counting.
For saturation experiments, non-specific binding was subtracted from total binding to provide specific binding and these values were recalculated in terms of pmol ligand bound per mg protein. Saturation curves were constructed and dissociation constants were calculated using the single site ligand binding model: Beq=(Bmax*X)/(X+Kd), where Beq is the amount of ligand bound at equilibrium, Bmax is the maximum receptor density, Kd is the dissociation constant for the ligand, and X is the free ligand concentration. For competition studies percent inhibition was determined and IC50 values were calculated using a 4 parameter logistic model (% inhibition=(A+((B−A)/(1+((x/C)^D)))) using XLfit, where A and B are the maximal and minimum inhibition respectively, C is the IC50 concentration and D is the (Hill) slope.
Example 39B. Tritiated Compound Binding to Membranes Isolated from Cells that Heterologous Express hNav1.7 and the β1 Subunit
Following the procedure described in Example 39A, and making modifications as required to: centrifuge supernatants at 100000×g instead of 10000×g; re-suspend pellets in a buffer containing 0.01% BSA in addition to 100 mM NaCl, 20 mM Tris HCl, pH 7.4 buffer, and 1% v/v […]; and storing membranes at −80° C. in single use aliquots instead of pooled.
Saturation experiments: Following the procedure described in Example 243A, and making modifications as required to incubate [3H]compound for 3 hours instead of 18 hours. […]

[2] = biological target: T1, hNav1.7; assay: Electrophysiological assay (EP), voltage clamp on Syncropatch 384PE; format: cell-based; conditions: CHO cells expressing Nav1.7, holding potential −50 mV, 7.5 min compound incubation; read-out: EP_SP hNav1.7 EVO IC50
Source text: Example 39C. Electrophysiological Assay (EP) (In Vitro Assay)
Patch voltage clamp electrophysiology allows for the direct measurement and quantification of block of voltage-gated sodium channels (NaV's), and allows the determination of the time- and voltage-dependence of block which has been interpreted as differential binding to the resting, open, and inactivated states of the sodium channel (Hille, B., Journal of General Physiology (1977), 69: 497-515).
The following voltage clamp electrophysiology studies were performed on representative compounds using cells heterologously expressing Nav1.7 or Nav1.5 channels. cDNAs for Nav1.7 (NM_002977) and Nav1.5 (AC137587) were stably expressed in Chinese Hamstr Ovary (CHO) cells and CHL (Chinese Hamster Lung) cells respectively. Sodium currents were measured in the whole-cell configuration using Syncropatch 384PE (Nanlon Technologies, Germany). 1NPC®-384 chips with custom medium resistance and single hole mode are used. Internal solution consists of (in mM): 110 […], 10 CsCl, 20 EGTA, and 10 Hepes (pH adjusted to 7.2); and external solution contains (in mM): 60 NMDG, 80 NaCl, 4 KCl, 1 MgCl2, 2 CaCl2, 2 D-Glucose monohydrate, 10 Hepes (pH adjusted to 7.4 with NaOH).
After system flushing, testing compounds are dissolved in external solution containing 0.1% Pluronic F-127. The chip is moved into the measuring head and the instrument primes the chip with external and internal solutions. 10 l cells are added to the chip from a cell hotel, and a negative pressure of −50 mBar is applied to form a seal. Following treatment with seal enhancer solution and wash-off with external solution, negative pressure of −250 mbar is applied for 1 second to achieve the whole-cell configuration, followed by three washing steps in external solution. 20 µl of compounds is added to 40 µl in each well (1:3 dilution of compounds), and after mixing, 20 l is removed so the volume is retained at 40 ul. After approximately 13 minutes recordings, 20 µl/well of 2 uM TTX, or 333 uM Tetracaine (for Nav1.5) is added to achieve full block.
For voltage protocol, an holding potential of −50 mV is applied during the whole experiment. A depolarizing step is applied to −10 mV for 10 ms, followed by a hyperpolarization step to −150 mV for 20 ms to allow channel recovery from inactivation. A second depolarizing step is applied from −150 mV to −10 mV for 10 ms, where currents were measured to derive blocking effects of compounds. Inhibition is determined based on 7.5 min of compound incubation.

Row | SMILES | IC50 [1] [nM] | IC50 [2] [nM]
1 | COc1cc(-c2cccc(OC(F)(F)F)c2)c(F)cc1N1C(=O)CO[C@H]2CN(S(=O)(=O)Nc3ccon3)CC[C@@H]21 [Example 30, (4aS,8aS)-1-(2-fluoro-5-methoxy-3′-(trifluoromethoxy)-[1,1′-biphenyl]-4-yl)-N-(isoxazol-3-yl)-2-oxohexahydro-H-pyrido[3,4-b][1,4]oxazine-6(7H)-sulfonamide] | 35.6 | 2.35
2 | COc1cc(-c2cccc(C(F)(F)F)c2)c(F)cc1N1C(=O)OC[C@H]2CN(S(=O)(=O)Nc3ccon3)CC[C@@H]21 [Example 34, (4aS,8aS)-1-(2-fluoro-5-methoxy-3′-(trifluoromethyl)-[1,1′-biphenyl]-4-yl)-N-(isoxazol-3-yl)-2-oxohexahydro-2H-pyrido[4,3-d][1,3]oxazine-6(4H)-sulfonamide] | 2000 | 196
3 | COc1cc(-c2cccc(Cl)c2)c(F)cc1N1C(=O)CO[C@@H]2CN(S(=O)(=O)Nc3ccon3)CC[C@H]21 [Example 13, (4aR,8aR)-1-(3′-chloro-2-fluoro-5-methoxy-[1,1′-biphenyl]-4-yl)-N-(isoxazol-3-yl)-2-oxohexahydro-1H-pyrido[3,4-b][1,4]oxazine-6(7H)-sulfonamide] | 471 | 11.7
4 | COc1cc(-c2cccc(C(F)(F)F)c2)cc(F)c1N1C(=O)CO[C@@H]2CN(S(=O)(=O)Nc3ccon3)CC[C@H]21 [Example 19, (4aR,8aR)-1-(3-fluoro-5-methoxy-3′-(trifluoromethyl)-[1,1′-biphenyl]-4-yl)-N-(isoxazol-3-yl)-2-oxohexahydro-1H-pyrido[3,4-b][1,4]oxazine-6(7H)-sulfonamide] | 831 | 50
5 | COc1cc(-c2cccc(C(F)(F)F)c2)c(F)cc1N1C(=O)CC[C@H]2CN(S(=O)(=O)Nc3ccon3)CCC21 (stereo in doubt) [Example 36, (4aS,8aS)-1-(2-fluoro-5-methoxy-3′-(trifluoromethyl)-[1,1′-biphenyl]-4-yl)-N-(isoxazol-3-yl)-2-oxooctahydro-1,6-naphthyridine-6(2H)-sulfonamide] | 20.7 | 2.19
6 | COc1cc(-c2ccc(F)c(C(F)(F)F)c2)c(F)cc1N1C(=O)CO[C@H]2CN(S(=O)(=O)Nc3ccon3)CC[C@@H]21 [Example 2, (4aS,8aS)-1-(2,4′-difluoro-5-methoxy-3′-(trifluoromethyl)-[1,1′-biphenyl]-4-yl)-N-(isoxazol-3-yl)-2-oxohexahydro-1H-pyrido[3,4-b][1,4]oxazine-6(7H)-sulfonamide] | 38.4 | 0.915
7 | COc1cc(-c2cc(C(F)(F)F)ccc2F)c(F)cc1N1C(=O)CO[C@@H]2CN(S(=O)(=O)Nc3ccon3)CC[C@H]21 [Example 7, (4aR,8aR)-1-(2,2′-difluoro-5-methoxy-5′-(trifluoromethyl)-[1,1′-biphenyl]-4-yl)-N-(isoxazol-3-yl)-2-oxohexahydro-1H-pyrido[3,4-b][1,4]oxazine-6(7H)-sulfonamide] | 167 | 5.76
8 | COc1cc(-c2cccc(C(F)(F)F)c2F)c(F)cc1N1C(=O)CO[C@@H]2CN(S(=O)(=O)Nc3ccon3)CC[C@H]21 [Example 11, (4aR,8aR)-1-(2,2′-difluoro-5-methoxy-3′-(trifluoromethyl)-[1,1′-biphenyl]-4-yl)-N-(isoxazol-3-yl)-2-oxohexahydro-1H-pyrido[3,4-b][1,4]oxazine-6(7H)-sulfonamide] | 230 | 11.2
9 | COc1cc(-c2cc(C(F)(F)F)ccc2F)c(F)cc1N1C(=O)CO[C@H]2CN(S(=O)(=O)Nc3ccon3)CC[C@@H]21 [Example 8, (4aS,8aS)-1-(2,2′-difluoro-5-methoxy-5′-(trifluoromethyl)-[1,1′-biphenyl]-4-yl)-N-(isoxazol-3-yl)-2-oxohexahydro-1H-pyrido[3,4-b][1,4]oxazine-6(7H)-sulfonamide] | 82.8 | 4.92
10 | COc1cc(-c2ccc(F)c(C(F)(F)F)c2)c(F)cc1N1C(=O)CO[C@@H]2CN(S(=O)(=O)Nc3ccon3)CC[C@H]21 [Example 1, (4aR,8aR)-1-(2,4′-difluoro-5-methoxy-3′-(trifluoromethyl)-[1,1′-biphenyl]-4-yl)-N-(isoxazol-3-yl)-2-oxohexahydro-1H-pyrido[3,4-b][1,4]oxazine-6(7H)-sulfonamide] | 44.3 | 1.12
11 | N#Cc1cc(-c2cccc(C(F)(F)F)c2)c(F)cc1N1C(=O)CO[C@@H]2CN(S(=O)(=O)Nc3ccon3)CC[C@H]21 [Example 23, (4aR,8aR)-1-(5-cyano-2-fluoro-3′-(trifluoromethyl)-[1,1′-biphenyl]-4-yl)-N-(isoxazol-3-yl)-2-oxohexahydro-1H-pyrido[3,4-b][1,4]oxazine-6(7H)-sulfonamide] | 2000 | 50.1
12 | COc1cc(-c2cccc(C(F)(F)F)c2)c(F)cc1N1CCO[C@@H]2CN(S(=O)(=O)Nc3ccncn3)CC[C@H]21 [Example 27, (4aR,8aR)-1-(2-fluoro-5-methoxy-3′-(trifluoromethyl)-[1,1′-biphenyl]-4-yl)-N-(pyrimidin-4-yl)hexahydro-1H-pyrido[3,4-b][1,4]oxazine-6(7H)-sulfonamide] | 21.2 | 2.02
